System: 885724-159-R-J1-PDC KRAS PDC multicell spheroid viability
Assay: Anticancer human tumor 885724-159-R-J1-PDC patient-derived pancreatic adenocarcinoma cell line growth inhibition [KRAS2]
Details: for IC50: curve of first compound; for viability, T/C: stronger effect = lower value
In short: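 KRAS-mutant tumor cells were grown as spheroids with HUVEC endothelial cells and human MSCs as stroma. Targeted agents were tested alone and with KRAS pathway inhibitors. Doses started at or near clinical Cmax, or 10 microM, descending half-log.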

[1] = second compound 0.1 µM, first compound 0.0316 µM
[2] = second compound 0.1 µM, first compound 0.1 µM
[3] = second compound 0.316 µM, first compound 0.0316 µM
[4] = second compound 0.316 µM, first compound 0.1 µM
[5] = second compound 1 µM, first compound 0.0316 µM
[6] = second compound 1 µM, first compound 0.1 µM
[7] = second compound 3.16 µM, first compound 0.0316 µM
[8] = second compound 3.16 µM, first compound 0.1 µM
[9] = second compound 10 µM, first compound 0.0316 µM
[10] = second compound 10 µM, first compound 0.1 µM
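Also: spheroids exposed to agents for 7 days before readout.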

SMILES: CC(C)NCC(C(=O)N1CCN(c2ncnc3c2C(C)CC3O)CC1)c1ccc(Cl)cc1 (stereo not given) + CC1OCC2(CCN(c3cnc(Sc4ccnc(N)c4Cl)c(N)n3)CC2)C1N
- IC50 (second compound 0.1 µM): 8340 nM
- IC50 (second compound 0.316 µM): 5810 nM
- IC50 (second compound 1 µM): 2210 nM
- IC50 (second compound 3.16 µM): 524 nM
- IC50 (second compound 10 µM): 100 nM
- viability, T/C [1]: 77.6%
- viability, T/C [2]: 72.6%
- viability, T/C (second compound 0.1 µM, first compound 0.316 µM): 64.5%
- viability, T/C (second compound 0.1 µM, first compound 1 µM): 65.5%
- viability, T/C (second compound 0.1 µM, first compound 3.16 µM): 63.8%
- viability, T/C (second compound 0.1 µM, first compound 10 µM): 45.9%
- viability, T/C [3]: 72.5%
- viability, T/C [4]: 60.3%
- viability, T/C (second compound 0.316 µM, first compound 0.316 µM): 58.9%
- viability, T/C (second compound 0.316 µM, first compound 1 µM): 61.5%
- viability, T/C (second compound 0.316 µM, first compound 3.16 µM): 59.7%
- viability, T/C (second compound 0.316 µM, first compound 10 µM): 42.7%
- viability, T/C [5]: 67.8%
- viability, T/C [6]: 62.1%
- viability, T/C (second compound 1 µM, first compound 0.316 µM): 55%
- viability, T/C (second compound 1 µM, first compound 1 µM): 51.4%
- viability, T/C (second compound 1 µM, first compound 3.16 µM): 54.4%
- viability, T/C (second compound 1 µM, first compound 10 µM): 41.7%
- viability, T/C [7]: 57.1%
- viability, T/C [8]: 55.6%
- viability, T/C (second compound 3.16 µM, first compound 0.316 µM): 46.2%
- viability, T/C (second compound 3.16 µM, first compound 1 µM): 47.5%
- viability, T/C (second compound 3.16 µM, first compound 3.16 µM): 46.5%
- viability, T/C (second compound 3.16 µM, first compound 10 µM): 32.2%
- viability, T/C [9]: 56.4%
- viability, T/C [10]: 49.6%
- viability, T/C (second compound 10 µM, first compound 0.316 µM): 42.4%
- viability, T/C (second compound 10 µM, first compound 1 µM): 37%
- viability, T/C (second compound 10 µM, first compound 3.16 µM): 36.2%
- viability, T/C (second compound 10 µM, first compound 10 µM): 21.8%

SMILES: Cn1ncnc1[C@H]1c2n[nH]c(=O)c3cc(F)cc(c23)N[C@@H]1c1ccc(F)cc1 + CC1OCC2(CCN(c3cnc(Sc4ccnc(N)c4Cl)c(N)n3)CC2)C1N
- IC50 (second compound 0.1 µM): > 100 nM
- IC50 (second compound 0.316 µM): > 100 nM
- IC50 (second compound 1 µM): > 100 nM
- IC50 (second compound 3.16 µM): > 100 nM
- IC50 (second compound 10 µM): > 100 nM
- viability, T/C (second compound 0.1 µM, first compound 0.000316 µM): 84.8%
- viability, T/C (second compound 0.1 µM, first compound 0.001 µM): 86.1%
- viability, T/C (second compound 0.1 µM, first compound 0.00316 µM): 85.2%
- viability, T/C (second compound 0.1 µM, first compound 0.01 µM): 87.9%
- viability, T/C [1]: 78.5%
- viability, T/C [2]: 78.7%
- viability, T/C (second compound 0.316 µM, first compound 0.000316 µM): 76.4%
- viability, T/C (second compound 0.316 µM, first compound 0.001 µM): 78%
- viability, T/C (second compound 0.316 µM, first compound 0.00316 µM): 78.2%
- viability, T/C (second compound 0.316 µM, first compound 0.01 µM): 79.1%
- viability, T/C [3]: 71.8%
- viability, T/C [4]: 69.7%
- viability, T/C (second compound 1 µM, first compound 0.000316 µM): 78.6%
- viability, T/C (second compound 1 µM, first compound 0.001 µM): 74.5%
- viability, T/C (second compound 1 µM, first compound 0.00316 µM): 71.4%
- viability, T/C (second compound 1 µM, first compound 0.01 µM): 68.5%
- viability, T/C [5]: 69.2%
- viability, T/C [6]: 73.6%
- viability, T/C (second compound 3.16 µM, first compound 0.000316 µM): 70.1%
- viability, T/C (second compound 3.16 µM, first compound 0.001 µM): 72.6%
- viability, T/C (second compound 3.16 µM, first compound 0.00316 µM): 69.8%
- viability, T/C (second compound 3.16 µM, first compound 0.01 µM): 67%
- viability, T/C [7]: 62.5%
- viability, T/C [8]: 58.8%
- viability, T/C (second compound 10 µM, first compound 0.000316 µM): 62.7%
- viability, T/C (second compound 10 µM, first compound 0.001 µM): 65.5%
- viability, T/C (second compound 10 µM, first compound 0.00316 µM): 64.8%
- viability, T/C (second compound 10 µM, first compound 0.01 µM): 59.9%
- viability, T/C [9]: 61.7%
- viability, T/C [10]: 61.4%

From PubChem BioAssay AID1963861 (Molecular Pharmacology Branch, DTP, NCI, 2024)
